According to patent publication US20120157477A1, “REVERSAL OF L-DOPA-INDUCED DYSKINESIA BY NEURONAL NICOTINIC RECEPTOR LIGANDS” (TARGACEPT, INC., priority 2009, published 2012):
“Also recorded” adds a separate entry of the source.

Experiments:
primates = assay: Toxicological studies, primates; assay type: in vivo
dogs = assay: Toxicological studies, dogs; assay type: in vivo
[1] = system: L-dopa-treated unilateral 6-hydroxydopamine-lesioned rats; assay: L-dopa-induced AIMs (dyskinesia) in unilateral 6-OHDA-lesioned rats; assay type: in vivo, rat
Description: The subtype selective NNR agonist Compound A, stimulates […] and to a lesser extent α6* NNRs. […] Experiments were performed using male Sprague-Dawley rats that were unilaterally lesioned with 6-OHDA (Sigma Chemical Co., St. Louis, Mo.) as previously described (Cenci et al., 1998; Cenci et al., 2002). 6-OHDA was dissolved in 0.02% ascorbic acid/saline at a concentration of 3 μg/μl. Compound A was systemically infused via osmotic minipumps (Alzet model 2006; Durect Corporation, Cupertino, Calif., USA), which delivered drug at a rate of 3.6 μl/day for 6 wk. […] Pumps were pre-filled with either sterilized water or Compound A base in water (pH 7.0) to provide the required doses (0.03, 0.1, 0.3 mg/kg/d). The minipumps were subcutaneously implanted along the dorsal aspect of the neck between the shoulder blades, according to the manufacturer's instruction, under isofluorane anesthesia. After implantation, rats were administered buprenorphine (0.02 mg/kg sc) for post-operative pain. Two weeks after initiation of drug treatment, the rats were administered single daily subcutaneous injections of 6 to 8 mg/kg L-dopa methyl ester plus 15 mg/kg benserazide. Two μl aliquots were stereotaxically injected at each of two sites for a total of 8 to 12 μg into the right ascending dopamine fiber bundle. Infusion of 6-OHDA into the target area was over a 2-min period, with the cannula maintained at the site of injection for a further 2 min. Two to three weeks after lesioning, rats were tested for drug-induced rotational behavior in an automated behavioral measurement apparatus (ROTOMAX, AccuScan Instruments Inc. Columbus, Ohio, USA). Each rat was placed in a cylindrical glass chamber for 30 min for acclimatization, after which 4.0 mg/kg amphetamine (Sigma Chemical Co., St. Louis, Mo.) was administered intraperitoneally (ip). Amphetamine-induced rotational behavior was monitored for 90 min, with rats making at least 200 ipsilateral turns/90 min used for further study.
L-dopa-induced AIMs were determined as indicated. See FIG. 1 for experiment dosing and testing regimen. Behavioral testing was done in the morning starting between 9 and 10 AM. Three different AIMs subtypes were measured including (1) axial dystonia, contralateral twisted posturing of the neck and upper body; (2) abnormal orolingual movements, stereotyped jaw movements and contralateral tongue protrusion; and (3) abnormal forelimb movements, repetitive rhythmic jerks or dystonic posturing of the contralateral forelimb and/or grabbing movements of the contralateral paw. See, for example, Carta M, Lindgren HS, Lundblad M, Stancampiano R, Fadda F, Cenci M A (2006), Role of Striatal L-DOPA in the Production of Dyskinesia in 6-hydroxydopamine Lesioned Rats. J Neurochem 96:1718-172; Cenci M A, Lee C S, Bjorklund A (1998) L-DOPA-induced dyskinesia in the rat is associated with striatal overexpression of prodynorphin- and glutamic acid decarboxylase mRNA; Eur J Neurosci 10:2694-2706; Cenci M A, Whishaw I Q, Schallert T (2002) Animal models of neurological deficits: how relevant is the rat? Nat Rev Neurosci 3:574-579; Bordia, T., Campos, C., Huang, L. Z. & Quik, M., “Continuous And Intermittent Nicotine Treatment Reduces L-3,4-Dihydroxyphenylalanine (L-Dopa)-Induced Dyskinesias In A Rat Model Of Parkinson's Disease,” J Pharmacol Exp Ther 327: 239-47 (2008)). Rats were scored on a scale from 0 to 4 for each of these three AIM subtypes as follows: 1=occasional; 2=frequent; 3=continuous but interrupted by sensory distraction; and 4=continuous, severe, not interrupted by sensory distraction. Animals were evaluated for AIMs for an initial 20 min baseline period, as well as for 3 h following L-dopa injection by a blinded rater. Assessment of the different subtypes of AIMs was done over 20 min sessions, thus yielding a total of 9 sessions of testing per animals. The maximum possible score for each animal was thus 108 (maximum score per session=12; number of sessions over 3 h=9). […]

Parkinsonian rats = assay: Limb use asymmetry (cylinder) test of motor function in Parkinsonian rats; assay type: in vivo, rat
Description: Because drugs that reduce AIMs may worsen Parkinsonism, the effect of Compound A (PD1) was also tested on motor function in Parkinsonian rats (see FIG. 3) using the limb use asymmetry or cylinder test. The cylinder test was used as an index of behavioral function after unilateral nigrostriatal damage, with explorative activity analyzed as previously described. Animals were placed in a transparent cylinder (20 cm diameter×30 cm height) or in a transparent cage and evaluated over a 5 min period. A mirror was placed behind the cylinder/cage to allow the raters to view forelimb movements when the rat was turned away from the rater. Wall exploration was expressed in terms of the percentage of use of the impaired forelimb (contralateral to the lesion) compared to the total number of limb use movements. Two raters, one blinded to the treatment status of the rats, performed the ratings. Correlation analyses yielded a high inter-rater reliability (R=0.99). […] The rat is placed in a transparent cylinder, which results in vertical exploration and the percentage of contact of the unimpaired and impaired forelimb against the cylinder evaluated (Cenci, M. A. and M. Lundblad, “Post-Versus Presynaptic Plasticity In L-Dopa-lnduced Dyskinesia,”. J Neurochem, 99: 381-392 (2006); Tillerson, J. L. et al., “Forced Limb-Use Effects On The Behavioral And Neurochemical Effects Of 6-Hydroxydopamine,” J Neurosci 21, 4427-35 (2001); and Meredith, G. E. & U. J. Kang, “Behavioral Models Of Parkinson's Disease In Rodents: A New Look At An Old Problem,” Mov Disord, 21: 1595-606 (2006).

rodents = assay: Toxicological studies, rodents; assay type: in vivo
rats = assay: Safety studies in rats; assay type: in vivo, rat
[2] = system: Parkinsonian nonhuman primates; settings: cited from earlier work
Parkinsonian rodents = settings: cited from earlier work
[3] = 0.1 or 0.3 mg/kg/d via subcutaneous minipump

For C(=C\[C@H]1CCNC1)/c1cncnc1 [Compound A, (R)-5-((E)-2-pyrrolidin-3-ylvinyl)pyrimidine], the “incidence of peripheral side effects” value (primates) was “low incidence of peripheral side effects”, the “incidence of peripheral side effects” value (dogs) was “low incidence of peripheral side effects” and the “total AIMs” value ([1]; 0.1 mg/kg/day, second and third assessments) was “significant decline in total AIMs”. For the same compound, the “total AIMs” value ([1]; 0.3 mg/kg/day, fourth assessment) was “significant decline in total AIMs”, the “L-dopa-induced AIMs, total or some subset (axial, oral and/or forelimb)” value ([1]; 0.1 and 0.3 mg/kg/day, across multiple assessments, P<0.05 vs control (FIG. 2)) was “reduce L-dopa-induced AIMs; also recorded: significant reduction” and the “reduction in oral versus axial AIMs” value [1, 3] was “more pronounced reduction in oral than axial AIMs”. The “reduction of total L-dopa-induced AIMs” value [1, 3] was roughly 25%, the “total AIMs” value ([1]; first and fifth AIMs assessments) was “trends for declines in total AIMs” and the “adverse effects (body weight, body temperature, grooming, urination, defecation, secretion)” value ([1]; minipump treatment in the AIMs study) was “no detectable adverse effects”. For the same compound, the “Parkinsonism / motor function, trend” value (Parkinsonian rats; lesioned rats, either dose tested) was “small trend for improvement; also recorded: trend for improving Parkinsonism”, the baseline motor function (Parkinsonian rats; off L-dopa, either dose tested, across the experiment) was “does not worsen baseline motor function” and the “enhanced limb use with L-dopa treatment” value (Parkinsonian rats; on L-dopa, either dose tested, across the experiment) was “nor does it worsen the enhanced limb use”. For the same compound, the “parkinsonism, asymmetric forelimb or cylinder test (FIG. 3)” value (Parkinsonian rats; two doses, Off or On L-dopa, several occasions) was “do not worsen parkinsonism”, the “incidence of peripheral side effects” value (rodents) was “low incidence of peripheral side effects” and the detrimental effects (rats; acute free base oral doses up to 30 mg/kg) was “not associated with any significant detrimental effects”. For the same compound, the behavioral sensitization (rats; rats) was “no behavioral sensitization” and the locomotor activity (rats; rats) was “did not increase locomotor activity”.

For CN1CCCC1c1cccnc1 (centres unmarked) [nicotine], the “reduction of L-dopa-induced dyskinetic-like movements” value [2] is given as roughly 50%, the “reduction of L-dopa-induced dyskinetic-like movements” value (Parkinsonian rodents; Parkinsonian rodents) is given as roughly 50% and the “L-dopa-induced AIMs” value (Parkinsonian rodents; rats, given continuously via osmotic minipump) is given as “most effectively reduced L-dopa-induced AIMs”.
